Measured values as given in US11440909B2, “10H-phenothiazine ferroptosis inhibitor as well as the preparative method and the use thereof” (CHENGDU HENGHAO INVESTMENT CO. LIMITED, priority 2018, dated 2022).

Test system: fibrosarcoma cell line HT1080
Assay: Ferroptosis screening model (MTT method), Erastin-induced ferroptosis
Assay type: cell-based, human
Details: Homo sapiens, HT-1080, 72 h, HT1080, ferroptosis inducer Erastin, 72 h, average of three tests, read-out: EC50
Protocol: The screening model for ferroptosis mainly used MTT method. First, the fibrosarcoma cell line HT1080 was cultured in a dish, and the cells in the logarithmic growth phase were inoculated into a 96-well plate in a certain number (3000-10000 cells/well), 100 μL per well, and then the plate was put in an 5% CO2 incubator at 37° C., to allow the cells to adhere. After 24 h, 100 μL compound solution at a certain concentration prepared in the designated medium and ferroptosis inducer Erastin (with a final concentration of […]) were added, setting 3 replicate wells for each compound to ensure the accuracy of the results, and a negative control group, a positive control group (Fer-15 μM), a blank control group and a solvent control group were included. After addition of drugs, the plate was placed in an incubator and cultivated for 72 h. On the day of MTT experiment, MTT test solution (5 mg/mL MTT solution dissolved in physiological saline, and stored in the dark at 4° C.) was pre-prepared and 20 μL MTT solution was added to each well, then the plate was put in an incubator and continued to incubate for 2-4 h. After that, 50 μL of 20% SDS solution (dissolved in MiliiQ water, added with 1% concentrated hydrochloric acid) was added to each well and kept in an incubator overnight. On the next day, the absorbance at 570 nm was measured with a microplate reader, to calculate the inhibition rate of drugs on ferroptosis. Generally, the absorbance value of the control group should be in the range of 0.8-1.2 as a normal value.
GraphPadPrism5 software was used to fit the change curve of inhibition rate and calculate the EC50.

Row | SMILES | EC50 [nM]
1 | COc1cc(C(C)c2ccc3c(c2)Nc2ccccc2S3)ccc1Cl (centres unmarked) [Compound A50, 2-(1-(4-chloro-3-methoxylphenyl)ethyl)-10H-phenothiazine] | 25
2 | COc1cc(C(C)c2ccc3c(c2)Nc2ccccc2S3)ccc1F (centres unmarked) [Compound A51, 2-(1-(4-fluoro-3-methoxylphenyl)ethyl)-10H-phenothiazine] | 22
3 | Cc1ccc(C(C)c2ccc3c(c2)Nc2ccccc2S3)cc1[N+](=O)[O-] (centres unmarked) [Compound A52, 2-(1-(4-methyl-3-nitrophenyl)ethyl)-10H-phenothiazine] | 13
4 | COC(=O)c1ccc(C(C)c2ccc3c(c2)Nc2ccccc2S3)cc1Cl (centres unmarked) [Compound A53, 4-(1-(10H-phenothiazin-2-yl)ethyl)-2-chlorobenzoic acid methyl ester] | 20
5 | CC(c1ccc2c(c1)Nc1ccccc1S2)c1ccc(F)c(OCc2ccccc2)c1 (centres unmarked) [Compound A55, 2-(1-(3-(benzyloxyl)-4-fluorophenyl)ethyl)-10H-phenothiazine] | 59
6 | CC(c1cc(F)cc(F)c1)c1ccc2c(c1)Nc1ccccc1S2 (centres unmarked) [Compound A56, 2-(1-(3,5-difluorophenyl)ethyl)-10H-phenothiazine] | 19
7 | CC(c1cc(Cl)cc(Cl)c1)c1ccc2c(c1)Nc1ccccc1S2 (centres unmarked) [Compound A57, 2-(1-(3,5-dichlorophenyl)ethyl)-10H-phenothiazine] | 18
8 | CC(c1cc(F)cc(OCc2ccccc2)c1)c1ccc2c(c1)Nc1ccccc1S2 (centres unmarked) [Compound A64, 2-(1-(3-(benzyloxyl)-5-fluorophenyl)ethyl)-10H-phenothiazine] | 64
9 | CC(c1ccc2c(c1)Nc1ccccc1S2)c1ccc2c(c1)OCCO2 (centres unmarked) [Compound A65, 2-(1-(2,3-dihydrobenzo[b][1,4]dioxa-6-yl)ethyl)-10H-phenothiazine] | 8
10 | CC(c1ccc2c(c1)Nc1ccccc1S2)c1cccc2c1COCO2 (centres unmarked) [Compound A66, 2-(1-(benzo[d][1,3]dioxin-5-yl)ethyl)-10H-phenothiazine] | 5
11 | CC(c1ccc2c(c1)Nc1ccccc1S2)c1cc2ccccc2o1 (centres unmarked) [Compound A67, 2-(1-(benzofuran-2-yl)ethyl)-10H-phenothiazine] | 16
12 | CC(c1ccc2c(c1)Nc1ccccc1S2)c1ccc2ccccc2c1 (centres unmarked) [Compound A68, 2-(1-(naphthalen-2-yl)ethyl)-10H-phenothiazine] | 5

Further compounds by falling EC50, results first:

Row | EC50 [nM] | SMILES
13 | 68 | Cc1cc(C(C)c2ccc3c(c2)Nc2ccccc2S3)ccc1OCc1ccccc1 (centres unmarked) [Compound A54, 2-(1-(4-(benzyloxyl)-3-methylphenyl)ethyl)-10H-phenothiazine]
14 | 34 | CCOc1cc(F)cc(C(C)c2ccc3c(c2)Nc2ccccc2S3)c1 (centres unmarked) [Compound A61, 2-(1-(3-ethoxyl-5-fluorophenyl)ethyl)-10H-phenothiazine]
15 | 31 | COC(=O)c1cc(F)cc(C(C)c2ccc3c(c2)Nc2ccccc2S3)c1 (centres unmarked) [Compound A63, 3-(1-(10H-phenothiazin-2-yl)ethyl)-5-fluorobenzoic acid methyl ester]
16 | 24 | Cc1cc(Cl)cc(C(C)c2ccc3c(c2)Nc2ccccc2S3)c1 (centres unmarked) [Compound A62, 2-(1-(3-chloro-5-methylphenyl)ethyl)-10H-phenothiazine]
17 | 20 | Cc1cc(C)cc(C(C)c2ccc3c(c2)Nc2ccccc2S3)c1 (centres unmarked) [Compound A59, 2-(1-(3,5-dimethylphenyl)ethyl)-10H-phenothiazine]
18 | 19 | CC(c1cc(C(F)(F)F)cc(C(F)(F)F)c1)c1ccc2c(c1)Nc1ccccc1S2 (centres unmarked) [Compound A58, 2-(1-(3,5-bis(trifluoromethyl)phenyl)ethyl)-10H-phenothiazine]
19 | 12 | COc1cc(OC)cc(C(C)c2ccc3c(c2)Nc2ccccc2S3)c1 (centres unmarked) [Compound A60, 2-(1-(3,5-dimethoxylphenyl)ethyl)-10H-phenothiazine]
20 | 3 | COc1ccc2cc(C(C)c3ccc4c(c3)Nc3ccccc3S4)ccc2c1 (centres unmarked) [Compound A69, 2-(1-(6-methoxylnaphthalen-2-yl)ethyl)-10H-phenothiazine]
